Test results from ChEMBL document CHEMBL1201862, “PubChem BioAssay data set” (2004).
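Five concentrations, 48 hours, 96-well plates. The concentration for 50% growth inhibition is given as GI50.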 Active and inactive are the calls of the source. Rule as the data show it: active = GI50 up to about 1.1 µM and inactive = higher.

Columns and labels:
Assay in all cases: NCI anticancer screen, dose series, 48 h
[1] = system: HOP-92
[2] = system: KM12
[3] = system: CAKI-1
[4] = system: OVCAR-4
[5] = system: SF-295
[6] = system: T47D
[7] = system: CCRF-CEM
[8] = system: OVCAR-8
[9] = system: MOLT-4
[10] = system: MDA-MB-435
[11] = system: EKVX
[12] = system: PC-3
[13] = system: OVCAR-3
[14] = system: MDA-N
[15] = system: NCI/ADR-RES
[16] = system: HCT-116
[17] = system: TK-10
[18] = system: SNB-19
[19] = system: UO-31
[20] = system: HOP-62

SMILES | GI50 [1] | GI50 [2] | GI50 [3] | GI50 [4] | GI50 [5] | GI50 [6] | GI50 [7] | GI50 [8] | GI50 [9] | GI50 [10] | GI50 [11] | GI50 [12] | GI50 [13] | GI50 [14] | GI50 [15] | GI50 [16] | GI50 [17] | GI50 [18] | GI50 [19] | GI50 [20]
Cc1ccc(-c2cc(-c3c(C)nn(C)c(=O)c3N)n[nH]2)cc1 | > 100 µM (inactive) | > 100 µM (inactive) | > 100 µM (inactive) | > 100 µM (inactive) | > 100 µM (inactive) | 53.5 µM (inactive) | > 100 µM (inactive) | > 100 µM (inactive) | > 100 µM (inactive) | > 100 µM (inactive) | 83 µM (inactive) | > 100 µM (inactive) | 88.3 µM (inactive) | > 100 µM (inactive) | > 100 µM (inactive) | > 100 µM (inactive) | > 100 µM (inactive) | > 100 µM (inactive) | – | –
N=C(N)NC(=N)Nc1ccccc1.Sc1nc2ccccc2s1 | – | > 100 µM (inactive) | > 100 µM (inactive) | > 100 µM (inactive) | > 100 µM (inactive) | 24.2 µM (inactive) | > 100 µM (inactive) | > 100 µM (inactive) | – | > 100 µM (inactive) | > 100 µM (inactive) | > 100 µM (inactive) | 0.532 µM (active) | > 100 µM (inactive) | > 100 µM (inactive) | > 100 µM (inactive) | > 100 µM (inactive) | > 100 µM (inactive) | > 100 µM (inactive) | > 100 µM (inactive)
Cc1ccc(/C=C2\Cc3cc(C)c(C)cc3C2=O)c(C(=O)O)c1 | – | 35.8 µM (inactive) | 45.8 µM (inactive) | – | 33.5 µM (inactive) | 43.3 µM (inactive) | 27 µM (inactive) | 43.5 µM (inactive) | 34.3 µM (inactive) | – | 87.7 µM (inactive) | 22.3 µM (inactive) | 37.9 µM (inactive) | 29.6 µM (inactive) | – | 32.1 µM (inactive) | > 100 µM (inactive) | 30.9 µM (inactive) | 29 µM (inactive) | 33.7 µM (inactive)
COC(=O)/C=C\[C@H]1[C@H](C)N1S(=O)(=O)c1ccc(C)cc1 (some centres undefined) | – | > 100 µM (inactive) | > 100 µM (inactive) | > 100 µM (inactive) | > 100 µM (inactive) | > 100 µM (inactive) | 91 µM (inactive) | > 100 µM (inactive) | > 100 µM (inactive) | > 100 µM (inactive) | > 100 µM (inactive) | > 100 µM (inactive) | > 100 µM (inactive) | > 100 µM (inactive) | > 100 µM (inactive) | > 100 µM (inactive) | > 100 µM (inactive) | > 100 µM (inactive) | – | > 100 µM (inactive)
COC(=O)C1=C(O)C(C(=O)OC)[C@]2(O)[C@H](C(=O)OC)[C@H]1C[C@@H](c1ccc(Cl)cc1Cl)[C@H]2C(=O)OC (some centres undefined) | 7.96 µM (inactive) | 12.3 µM (inactive) | 9.68 µM (inactive) | 6.55 µM (inactive) | 7.46 µM (inactive) | 4.83 µM (inactive) | – | 4.81 µM (inactive) | 2.48 µM (inactive) | 4.09 µM (inactive) | 19.1 µM (inactive) | 8.41 µM (inactive) | 5.14 µM (inactive) | 2.74 µM (inactive) | 3.83 µM (inactive) | 6.3 µM (inactive) | 12.6 µM (inactive) | 6.98 µM (inactive) | 8.97 µM (inactive) | 5.5 µM (inactive)
C/C=C\C(CC(=O)NCCC1CN(S(=O)(=O)C(F)(F)F)c2ccccc21)CC(=O)OC (centres undefined) | 23.9 µM (inactive) | 26.9 µM (inactive) | 56.6 µM (inactive) | 63.5 µM (inactive) | 42.4 µM (inactive) | – | 26.6 µM (inactive) | 38.8 µM (inactive) | 29.6 µM (inactive) | > 10 µM (inactive) | 37.4 µM (inactive) | 35.4 µM (inactive) | 38.3 µM (inactive) | 40 µM (inactive) | 29.6 µM (inactive) | 31.3 µM (inactive) | – | 44.7 µM (inactive) | 35.3 µM (inactive) | 35.2 µM (inactive)
CCN(CC)c1nc(N(C)C)c2ccc(OC)cc2n1 | 18.5 µM (inactive) | 14.7 µM (inactive) | 22.9 µM (inactive) | 25.8 µM (inactive) | 17.2 µM (inactive) | 17.2 µM (inactive) | – | 15.2 µM (inactive) | 3.49 µM (inactive) | 10.5 µM (inactive) | 3.95 µM (inactive) | 17.3 µM (inactive) | – | 8.49 µM (inactive) | 11.9 µM (inactive) | 4.35 µM (inactive) | 24.5 µM (inactive) | 20 µM (inactive) | – | 19.7 µM (inactive)
Oc1c(Cl)c(Cl)c(O)c2c1CCCC2 | 1.85 µM (inactive) | 12.4 µM (inactive) | – | – | 18.5 µM (inactive) | – | 2.08 µM (inactive) | 18.7 µM (inactive) | – | 16.4 µM (inactive) | 7.85 µM (inactive) | 17.7 µM (inactive) | – | 14.3 µM (inactive) | 15.5 µM (inactive) | 1.51 µM (inactive) | 3.37 µM (inactive) | 16 µM (inactive) | 2.36 µM (inactive) | 25.4 µM (inactive)
O=Cc1ccc(-c2ccc(S(=O)(=O)O)cc2)o1 | – | > 100 µM (inactive) | > 100 µM (inactive) | – | > 100 µM (inactive) | – | > 10 µM (inactive) | > 100 µM (inactive) | > 100 µM (inactive) | > 100 µM (inactive) | > 100 µM (inactive) | > 100 µM (inactive) | > 100 µM (inactive) | > 100 µM (inactive) | > 100 µM (inactive) | > 100 µM (inactive) | > 100 µM (inactive) | > 100 µM (inactive) | > 100 µM (inactive) | –
c1ccc2c(c1)SCCC2NC1=NCCO1 (centres undefined) | – | > 100 µM (inactive) | > 100 µM (inactive) | > 100 µM (inactive) | > 100 µM (inactive) | > 100 µM (inactive) | > 100 µM (inactive) | > 100 µM (inactive) | > 100 µM (inactive) | > 100 µM (inactive) | > 100 µM (inactive) | > 100 µM (inactive) | > 100 µM (inactive) | > 100 µM (inactive) | > 100 µM (inactive) | > 100 µM (inactive) | > 100 µM (inactive) | > 100 µM (inactive) | > 100 µM (inactive) | > 100 µM (inactive)
CC(=O)[C@@]1(C)CC2(CCN(C)CC2)OC1C (some centres undefined) | > 100 µM (inactive) | > 100 µM (inactive) | > 100 µM (inactive) | > 100 µM (inactive) | > 100 µM (inactive) | > 100 µM (inactive) | – | > 100 µM (inactive) | > 100 µM (inactive) | > 100 µM (inactive) | > 100 µM (inactive) | – | > 100 µM (inactive) | > 100 µM (inactive) | > 100 µM (inactive) | > 100 µM (inactive) | > 100 µM (inactive) | > 100 µM (inactive) | > 100 µM (inactive) | > 100 µM (inactive)
Cc1n[nH]c(=S)n1/N=C/c1ccc(-c2ccc(Cl)cc2)o1 | 69 µM (inactive) | > 100 µM (inactive) | > 100 µM (inactive) | > 100 µM (inactive) | 67.8 µM (inactive) | > 100 µM (inactive) | – | 93.1 µM (inactive) | > 100 µM (inactive) | > 100 µM (inactive) | 61.9 µM (inactive) | > 100 µM (inactive) | > 100 µM (inactive) | > 100 µM (inactive) | > 100 µM (inactive) | > 100 µM (inactive) | 83.4 µM (inactive) | – | > 100 µM (inactive) | 49.7 µM (inactive)
CCOC(=O)c1cc(C2CCN(Cc3ccccc3)C2=O)c(C(=O)/C=C(/C)N)[nH]1 (centres undefined) | 25.8 µM (inactive) | > 100 µM (inactive) | > 100 µM (inactive) | 72.9 µM (inactive) | 46.3 µM (inactive) | > 100 µM (inactive) | – | 65.5 µM (inactive) | > 100 µM (inactive) | > 100 µM (inactive) | > 100 µM (inactive) | > 100 µM (inactive) | 81.3 µM (inactive) | > 100 µM (inactive) | 72.1 µM (inactive) | 90.6 µM (inactive) | > 100 µM (inactive) | > 100 µM (inactive) | 91.2 µM (inactive) | 30.5 µM (inactive)
COC(=O)/C=C(\C(=O)OC)C1C(=O)Oc2c(C)c(=O)c3ccccc3n21 (centres undefined) | – | > 100 µM (inactive) | > 100 µM (inactive) | > 100 µM (inactive) | > 100 µM (inactive) | > 100 µM (inactive) | > 100 µM (inactive) | > 100 µM (inactive) | > 100 µM (inactive) | > 100 µM (inactive) | > 100 µM (inactive) | > 100 µM (inactive) | > 100 µM (inactive) | > 100 µM (inactive) | > 100 µM (inactive) | > 100 µM (inactive) | > 100 µM (inactive) | > 100 µM (inactive) | – | > 100 µM (inactive)
C/C(=N\NC(=O)c1ccccc1O)c1cccc(/C(C)=N/NC(=O)c2ccccc2O)n1 | 10.9 µM (inactive) | 6.5 µM (inactive) | – | – | 12.5 µM (inactive) | 4.24 µM (inactive) | – | 2.13 µM (inactive) | 0.955 µM (active) | 41.8 µM (inactive) | 13.8 µM (inactive) | 7.1 µM (inactive) | – | > 57 µM (inactive) | 27.6 µM (inactive) | – | 18.6 µM (inactive) | – | – | 5.05 µM (inactive)
O=C1OC2(c3ccccc31)c1cc(I)c(O)c(I)c1Oc1c2cc(I)c(O)c1I [ERYTHROSINE] | > 100 µM (inactive) | 10.4 µM (inactive) | 14.6 µM (inactive) | > 100 µM (inactive) | > 100 µM (inactive) | > 100 µM (inactive) | > 100 µM (inactive) | > 100 µM (inactive) | > 100 µM (inactive) | > 100 µM (inactive) | > 100 µM (inactive) | > 100 µM (inactive) | 5.46 µM (inactive) | – | > 100 µM (inactive) | 72.4 µM (inactive) | > 100 µM (inactive) | > 100 µM (inactive) | > 100 µM (inactive) | > 100 µM (inactive)
